Test results published in paper PMC6149971, “In Vivo and In Vitro Activities and ADME-Tox Profile of a Quinolizidine-Modified 4-Aminoquinoline: A Potent Anti-P. falciparum and Anti-P. vivax Blood-Stage Antimalarial” (Molecules : A Journal of Synthetic Chemistry and Natural …, 2017).
“And” between values parts separate entries of the source, which are not always exact repeats. Identical values can stand only once. Like-named read-outs stand apart in the source and are kept apart here.

Experiments:
[1] = Microsome stability and metabolism studies, rat; type: in vitro ADME; design: key: +: Metabolic Products Detected In Vitro and In Vivo; ND: Not detectable; conditions: (−)-AM1 1 μM, at 30 min
Experimental: (§1) Samples from the metabolic stability and metabolism studies were analyzed under the following conditions: UPLC interfaced with a Premiere XE triple Quadrupole Waters for stability studies, and Bruker Daltonics Ion Trap HCT Ultra for metabolic studies. A gradient from 2% to 100% (Water, MeOH, 5 mM Ammonium Acetate) over 2 min (stability) or 12 min (metabolism) in a C18 BEH (dimensions 1 by 50 mm for stability and 2.1 by 100 mm for metabolism, 1.7 µm column, 45 °C temperature, flow rate 0.5 mL/min) was used. For stability studies, the detection was performed in MRM (ESI positive, Q1/Q3 330.16/152.00, Cone Voltage 45 V; Extractor 5 V; Capillary 3.4 kV), while for metabolism studies, analysis was performed in Auto MS/MS mode (ESI positive; Capillary 109 V; Dry Temp 350 °C; Nebulizer 30 psi; Dry gas 10 L/min; HV capillary 500 V; Mass Accu time 500 µs; Mass range MS scan 100–600 amu, MS/MS 50–450 amu).
(§2) For stability and metabolism studies, test compounds were dissolved in DMSO, diluted at the final concentration of 1 µM, and pre-incubated in duplicate for 10 min at 37 °C in potassium phosphate buffer, pH 7.4, 3 mM MgCl2, with rat, mouse, and human hepatic microsomes (Xenotech Europe, Pfungstadt, Germany) at the final concentration of 0.5 mg/mL. The reaction was then started by adding the cofactor mixture of NADP, Glc6P, and G6P-DH, in the presence of UDPGA 1 mM in human microsomes to promote glucuronide formation. Acetonitrile (with verapamil as internal standard) was added to the samples at the times time 0 and 30 min to stop the reaction. Samples were then centrifuged and the supernatants analysed and quantified by LC-MS/MS. Reference compounds of known metabolic stability, 7-ethoxycoumarin (7-EC) and propranolol, were used as controls.
(§3) The percentage of the area of test compounds remaining after 30 min incubation was calculated in respect to the area of compounds at time = 0 min. […] Samples were re-analyzed by acquiring the daughter scan of the potential metabolites found during the full scan acquisition.

[2] = Microsome stability and metabolism studies, mouse; type: in vitro ADME; design: key: +: Metabolic Products Detected In Vitro and In Vivo; ND: Not detectable; conditions: (−)-AM1 1 μM, at 30 min
Experimental: as §1, §2, §3

[3] = Microsome stability and metabolism studies, human; type: in vitro ADME; design: key: +: Metabolic Products Detected In Vitro and In Vivo; ND: Not detectable; conditions: (−)-AM1 1 μM, at 30 min
Experimental: (§4) Samples from the metabolic stability and metabolism studies were analyzed under the following conditions: UPLC interfaced with a Premiere XE triple Quadrupole Waters for stability studies, and Bruker Daltonics Ion Trap HCT Ultra for metabolic studies. A gradient from 2% to 100% (Water, MeOH, 5 mM Ammonium Acetate) over 2 min (stability) or 12 min (metabolism) in a C18 BEH (dimensions 1 by 50 mm for stability and 2.1 by 100 mm for metabolism, 1.7 µm column, 45 °C temperature, flow rate 0.5 mL/min) was used. […]
For stability and metabolism studies, test compounds were dissolved in DMSO, diluted at the final concentration of 1 µM, and pre-incubated in duplicate for 10 min at 37 °C in potassium phosphate buffer, pH 7.4, 3 mM MgCl2, with rat, mouse, and human hepatic microsomes (Xenotech Europe, Pfungstadt, Germany) at the final concentration of 0.5 mg/mL. […] Samples were then centrifuged and the supernatants analysed and quantified by LC-MS/MS. […]
as §3

[4] = Metabolites in mouse plasma after oral treatment; type: in vivo; design: key: +: Metabolic Products Detected In Vitro and In Vivo; ND: Not detectable; conditions: after 50 mg/kg (−)-AM1 oral gavage, at 120 min
Experimental: A representative chromatogram in the mouse and the MS spectra are shown in Figure S1 (Supplementary Materials), while the proposed structures of metabolites in all the species, together with the retention times, are shown in Table 3. In the same table, the metabolites found in mouse plasma after 50 mg/kg oral treatment are included. The retention times and [M + H]^+ of the metabolites are the same for all three species.
The parent [M + H]^+ = 330 and the metabolites [M + H]^+ = 346 and [M + H]^+ = 344 were also detected in the mouse plasma samples collected after oral treatment of CD1 mice with 50 mg/kg of (−)-AM1 (Figure S4).
as §4

[5] = system: chloroquine-sensitive and resistant P. falciparum strains; assay: In vitro antimalarial activity, range over the strain panel; type: cell-based; conditions: D10, W-2, FCR1, FCR3, TM91C235; range over strains and forms; read-out: IC50 range against CQ-S and CQ-R P. falciparum strains
[6] = design: method as in PMID 19651905; conditions: pH 7.4; cited from earlier work
[7] = system: P. vivax field isolates; assay: In vitro assay against P. vivax field isolates; type: cell-based; conditions: for IC50: read-out: P. vivax IC50, field isolates
Source text: Ten P. vivax isolates were collected from June to July 2010 from malaria patients attending the Shoklo Malaria Research Unit (SMRU) clinics, Mae Sot region of the Tak Province in north-western Thailand under the ethical guidelines in the approved protocol OXTREC 027-05 (Centre for Clinical Vaccinology and Tropical Medicine, University of Oxford, Oxford, UK). These samples were collected from patients with no prior antimalarial therapy and with microscopically confirmed P. vivax. After written consent, blood samples were collected by venepuncture in 5 mL volume lithium heparinized tubes, which were then transported to the laboratory at SMRU within 5 h of collection. The ten isolates were chosen for testing because the majority (>80%) of the parasites were at the mid trophozoite stage (around 20 h post invasion) and no schizonts were detected.

[8] = Maximum tolerated dose in CD1 mice; conditions: CD1, mouse, in vivo, ip
[9] = system: P. falciparum FCR3 (CQ-R); assay: In vitro chemosensitivity assay (pLDH), FCR3 strain; type: cell-based; conditions: Plasmodium falciparum, FCR3, 72 h, read-out: P. falciparum IC50, FCR3
[10] = system: P. falciparum TM91C235 (multidrug-resistant); assay: In vitro chemosensitivity assay (pLDH), TM91C235 strain; type: cell-based; conditions: Plasmodium falciparum, 72 h, read-out: P. falciparum IC50, TM91C235
[11] = system: P. falciparum D10 (CQ-S); design: method as in PMID 22901673; conditions: 72 h incubation, pLDH method, mean of 3 experiments; data already published; cited from earlier work
[12] = system: P. falciparum FCR1 (CQ-R); assay: In vitro chemosensitivity assay (pLDH), FCR1 strain; type: cell-based; conditions: Plasmodium falciparum, 72 h, read-out: P. falciparum IC50, FCR1
[13] = system: P. falciparum W-2 (CQ-R); design: method as in PMID 22901673; conditions: 72 h incubation, pLDH method, mean of 3 experiments; data already published; cited from earlier work
[14] = target: T1, hERG (Homo sapiens, UniProt Q12809); assay: hERG [3H]-astemizole radioligand binding assay; conditions: HEK293 cell membranes, preliminary experiments
T1 construct: expressed in transfected cells
Experimental: [^3H]-astemizole (PerkinElmer ITALIA Spa, Milan, Italy) radioligand binding assays were performed in HEK293 cells membranes stably transfected with the hERG (U04270); non-specific binding was evaluated in the presence of an excess of 10 µM cold astemizole. Experiments were performed at 22 °C for 60 min in triplicate and compounds tested in a range from 0.03 µM to 30 µM. Two separate experiments were performed and data analyzed with non-linear fitting using a four-parameter logistic.

[15] = Pharmacokinetics in CD-1 mice after oral administration; type: in vivo, mouse
Experimental: Samples from the pharmacokinetic studies were analyzed under the following conditions: UPLC interfaced with a Premiere XE triple Quadrupole, Waters. A gradient from 2 to 100% (Water, MeOH, 5 mM Ammonium Acetate) over 1.3 min was used in Acquity HSS T3 (dimensions 2.1 by 50 mm, 1.8 µm column, 40 °C temperature, flow rate 0.5 mL/min). Detection was performed in MRM (ESI positive, Q1/Q3 330.16/152.00, Cone Voltage 45 V; Extractor 5 V; Capillary 3.4 kV). The limit of detection was 1 ng/mL. Pharmacokinetic parameters were determined by Non-Compartmental Analysis, using the linear trapezoidal rule and uniform weight.
Pharmacokinetic data were collected in mice by testing the racemate and the enantiomers at the same single dose, and vehicle-utilized for in vivo studies (see composition in paragraph 4.4). Briefly, male CD-1 mice (Charles River Laboratories) weighing 18–22 g received single dose (10 mg/kg) oral administrations of the AM1 racemate and single enantiomers, each dissolved in SSV. For each experiment, twenty-four mice/dose and three mice/time-point were used. Blood samples were collected at eight selected time-points (15, 30 and 60 min; 2, 4, 6, 8 and 24 h) under ethyl ether anaesthesia. The heparinized tubes containing blood samples were immediately placed on ice and centrifuged, and the supernatant collected and frozen at −80 °C prior to analysis. Pharmacokinetic plasma samples (spiked with internal standard) were filtered (Sirocco filter plate, Waters) under vacuum, and 5 µL analysed by LC-MS/MS.

[16] = system: P. berghei ANKA; assay: Standard four-day suppressive test, P. berghei; type: in vivo; conditions: CD1 mice, oral, once a day for four days, parasitaemia on day 4
Experimental: Groups of five CD1 mice were inoculated i.v. with 4 × 10^6 infected erythrocytes/mice. The compound, dissolved in standard suspending formula (SSV) (0.5% sodium carboxymethylcellulose, 0.5% benzyl alcohol, 0.4% Tween 80, 0.9% NaCl), was administered orally, once a day for a period of four days, starting two hours post-infection. […] Parasitaemia was determined by microscopic examination of Giemsa-stained blood films taken on day four, processed using MICROSOFT® EXCEL spreadsheets (Microsoft Corp., Redmond, WA, USA), and expressed as percentages of inhibition from the arithmetic mean parasitaemias of each group in relation to the untreated group. ED50 and ED90 values were calculated by GraphPad Prism 6 (GraphPad Software Inc, La Jolla, CA, USA).

[17] = target: CYP3A4 (Homo sapiens, UniProt P08684); assay: in vitro
[18] = target: CYP2C9 (Homo sapiens, UniProt P11712); assay: in vitro
[19] = target: T2, CYP1A2 (Homo sapiens, UniProt P05177); assay: in vitro
T2 sequence (P05177 1-516): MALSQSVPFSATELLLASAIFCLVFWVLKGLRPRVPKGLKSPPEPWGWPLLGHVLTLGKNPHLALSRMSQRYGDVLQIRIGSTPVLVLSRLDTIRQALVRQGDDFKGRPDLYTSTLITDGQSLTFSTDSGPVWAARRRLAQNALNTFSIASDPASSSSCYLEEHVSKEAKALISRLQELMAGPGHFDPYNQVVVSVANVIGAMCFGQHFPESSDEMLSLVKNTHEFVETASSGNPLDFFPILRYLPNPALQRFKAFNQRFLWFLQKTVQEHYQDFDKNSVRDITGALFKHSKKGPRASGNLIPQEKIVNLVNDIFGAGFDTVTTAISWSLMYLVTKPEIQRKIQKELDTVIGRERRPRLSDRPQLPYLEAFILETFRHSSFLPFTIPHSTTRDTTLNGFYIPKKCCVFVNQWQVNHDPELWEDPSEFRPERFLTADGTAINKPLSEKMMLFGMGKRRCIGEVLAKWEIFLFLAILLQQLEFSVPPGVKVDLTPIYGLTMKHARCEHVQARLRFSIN

[20] = target: CYP2D6 (Homo sapiens, UniProt P10635); assay: in vitro
[21] = target: CYP2C19 (Homo sapiens, UniProt P33261); assay: in vitro
[22] = 10 field isolates from the Thai–Burmese border, mean
[23] = CD-1 mice, 10 mg/kg oral, single dose in SSV, plasma
[24] = male, CD-1, mouse, in vivo, po, 10 mg/kg

CYP2D6, sequence (P10635 whole entry): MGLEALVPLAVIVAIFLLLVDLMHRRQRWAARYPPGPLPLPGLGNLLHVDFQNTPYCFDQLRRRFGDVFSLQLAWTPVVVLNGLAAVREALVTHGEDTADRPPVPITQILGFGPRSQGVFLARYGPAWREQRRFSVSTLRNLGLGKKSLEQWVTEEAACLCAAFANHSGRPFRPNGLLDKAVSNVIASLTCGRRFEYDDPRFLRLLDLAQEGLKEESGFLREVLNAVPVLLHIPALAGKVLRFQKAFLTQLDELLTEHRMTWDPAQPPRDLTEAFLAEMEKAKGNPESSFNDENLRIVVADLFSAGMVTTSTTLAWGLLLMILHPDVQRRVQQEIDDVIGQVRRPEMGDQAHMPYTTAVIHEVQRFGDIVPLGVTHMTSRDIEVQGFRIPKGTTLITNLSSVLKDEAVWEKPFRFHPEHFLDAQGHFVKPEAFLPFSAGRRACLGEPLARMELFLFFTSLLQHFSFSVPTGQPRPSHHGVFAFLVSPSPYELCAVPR
CYP2C9, sequence (P11712 whole entry): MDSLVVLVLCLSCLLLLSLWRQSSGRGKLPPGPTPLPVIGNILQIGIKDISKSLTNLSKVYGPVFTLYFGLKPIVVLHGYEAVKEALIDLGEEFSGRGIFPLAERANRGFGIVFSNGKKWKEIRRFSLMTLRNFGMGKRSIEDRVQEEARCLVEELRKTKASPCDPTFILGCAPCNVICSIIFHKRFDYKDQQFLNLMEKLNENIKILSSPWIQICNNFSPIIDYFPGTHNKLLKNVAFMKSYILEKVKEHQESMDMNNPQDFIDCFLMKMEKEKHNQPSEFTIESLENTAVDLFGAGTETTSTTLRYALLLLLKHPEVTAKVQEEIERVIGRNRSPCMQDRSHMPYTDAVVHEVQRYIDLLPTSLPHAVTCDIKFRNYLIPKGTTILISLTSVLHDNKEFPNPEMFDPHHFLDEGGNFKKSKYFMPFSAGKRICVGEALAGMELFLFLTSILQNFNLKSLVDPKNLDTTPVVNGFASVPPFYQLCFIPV
CYP2C19, sequence (P33261 whole entry): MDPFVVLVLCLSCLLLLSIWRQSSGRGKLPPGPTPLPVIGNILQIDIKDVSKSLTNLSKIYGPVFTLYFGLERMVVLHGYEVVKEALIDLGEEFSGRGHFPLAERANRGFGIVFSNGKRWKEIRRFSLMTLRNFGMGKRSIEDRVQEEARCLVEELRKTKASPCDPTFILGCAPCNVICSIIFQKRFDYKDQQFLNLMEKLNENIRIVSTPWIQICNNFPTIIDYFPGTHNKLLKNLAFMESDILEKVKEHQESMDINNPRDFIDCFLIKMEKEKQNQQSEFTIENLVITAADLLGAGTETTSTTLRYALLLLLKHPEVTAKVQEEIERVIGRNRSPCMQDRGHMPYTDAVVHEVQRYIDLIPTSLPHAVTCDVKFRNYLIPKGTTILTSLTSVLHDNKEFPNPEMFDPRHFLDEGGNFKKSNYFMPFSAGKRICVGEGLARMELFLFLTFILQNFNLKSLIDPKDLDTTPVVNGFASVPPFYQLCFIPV
T1 sequence (Q12809 whole entry): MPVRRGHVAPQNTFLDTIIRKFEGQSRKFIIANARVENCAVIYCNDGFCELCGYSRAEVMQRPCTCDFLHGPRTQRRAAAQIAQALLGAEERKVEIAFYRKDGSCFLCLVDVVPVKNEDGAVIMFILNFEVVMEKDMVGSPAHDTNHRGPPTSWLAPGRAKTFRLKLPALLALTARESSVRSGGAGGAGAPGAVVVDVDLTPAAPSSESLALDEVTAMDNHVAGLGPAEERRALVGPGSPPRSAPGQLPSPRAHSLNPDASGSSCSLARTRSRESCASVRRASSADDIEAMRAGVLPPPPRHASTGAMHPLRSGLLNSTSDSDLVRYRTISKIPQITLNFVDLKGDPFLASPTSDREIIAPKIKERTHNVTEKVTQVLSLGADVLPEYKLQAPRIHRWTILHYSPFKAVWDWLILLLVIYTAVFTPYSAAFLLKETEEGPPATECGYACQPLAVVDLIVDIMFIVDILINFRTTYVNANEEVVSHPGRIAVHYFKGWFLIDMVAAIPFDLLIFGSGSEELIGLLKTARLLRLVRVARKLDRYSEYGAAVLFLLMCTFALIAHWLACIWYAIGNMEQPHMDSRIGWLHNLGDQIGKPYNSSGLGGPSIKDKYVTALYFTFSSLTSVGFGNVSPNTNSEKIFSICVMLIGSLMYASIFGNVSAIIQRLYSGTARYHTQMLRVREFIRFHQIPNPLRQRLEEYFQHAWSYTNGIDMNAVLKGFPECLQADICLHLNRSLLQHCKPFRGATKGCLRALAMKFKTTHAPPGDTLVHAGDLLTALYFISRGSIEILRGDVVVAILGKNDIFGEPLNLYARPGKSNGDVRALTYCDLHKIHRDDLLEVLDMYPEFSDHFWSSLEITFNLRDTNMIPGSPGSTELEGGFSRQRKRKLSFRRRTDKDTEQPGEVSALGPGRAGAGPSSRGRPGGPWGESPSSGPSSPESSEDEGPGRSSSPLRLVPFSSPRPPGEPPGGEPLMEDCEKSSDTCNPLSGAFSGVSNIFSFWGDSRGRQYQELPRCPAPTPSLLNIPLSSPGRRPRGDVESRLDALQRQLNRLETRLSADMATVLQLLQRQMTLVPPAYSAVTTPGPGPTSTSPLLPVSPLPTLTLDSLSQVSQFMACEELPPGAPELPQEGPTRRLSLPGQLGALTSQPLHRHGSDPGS
CYP3A4, sequence (P08684 whole entry): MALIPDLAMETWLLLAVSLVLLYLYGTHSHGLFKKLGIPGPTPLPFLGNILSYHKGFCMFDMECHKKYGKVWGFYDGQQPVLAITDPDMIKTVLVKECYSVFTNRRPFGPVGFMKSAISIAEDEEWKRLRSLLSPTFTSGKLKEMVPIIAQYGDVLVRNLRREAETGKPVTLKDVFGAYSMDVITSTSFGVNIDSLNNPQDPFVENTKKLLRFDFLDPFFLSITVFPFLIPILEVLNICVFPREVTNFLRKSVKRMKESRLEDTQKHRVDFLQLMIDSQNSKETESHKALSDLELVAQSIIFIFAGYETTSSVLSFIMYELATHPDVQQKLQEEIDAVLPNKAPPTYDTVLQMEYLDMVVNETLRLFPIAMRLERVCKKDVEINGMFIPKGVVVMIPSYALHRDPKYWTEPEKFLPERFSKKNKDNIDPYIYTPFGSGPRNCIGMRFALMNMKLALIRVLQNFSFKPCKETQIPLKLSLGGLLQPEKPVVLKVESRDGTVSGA

Compound: [O-][NH+](CC1CCCN2CCCCC12)c1ccnc2cc(Cl)ccc12 (stereo not shown) [C00003]
- Metabolic products detected, in vitro microsomes, rat [1]: +
- Metabolic products detected, in vitro microsomes, mouse [2]: +
- Metabolic products detected, in vitro microsomes, human [3]: +
- Metabolic products detected, in vivo plasma levels, mouse [4]: +

Compound: Clc1ccc2c(NCC3CCCN4CCCCC34)ccnc2c1 (stereo not shown) [AM1, 7-chloro-4-(N-lupinyl)aminoquinoline]
- IC50 [5]: 16 to 53 nM
- LogD7.4 [6]: 2.26
- IC50 [7, 22]: 29 nM

Compound: O=C(Nc1ccnc2cc(Cl)ccc12)[C@@H]1CCCN2CCCC[C@H]12 [C00002]
- Metabolic products detected, in vitro microsomes, rat [1]: +
- Metabolic products detected, in vitro microsomes, mouse [2]: +
- Metabolic products detected, in vitro microsomes, human [3]: +

Compound: CCN(CC)CCCC(C)Nc1ccnc2cc(Cl)ccc12 (stereo not shown) [CQ, chloroquine, reference compound]
- MTD [8]: 50 mg/kg
- IC50 [9]: 113 nM
- IC50 [10]: 199 nM
- IC50 [11]: 23.7 nM
- IC50 ([7]; Plasmodium vivax): 86.7 nM
- IC50 [12]: 182 nM
- IC50 [13]: 438 nM

Compound: Clc1ccc2c(NCC3CCCN4CCCCC34)ccnc2c1 (racemic) [(±)-AM1, 7-chloro-4-(N-lupinyl)aminoquinoline]
- Ki [14]: 500 to 800 nM
- IC50 [11]: 16.1 nM
- MRT last [15, 23]: 3.27 h
- Tmax [15, 23]: 0.5 h
- AUC last ([15]; CD-1 mice, 10 mg/kg oral, single dose in SSV, plasma, 10 mg/kg): 19.5 min·µM and 6421 min·ng/mL
- P. berghei ED50 (95% CI) [16]: 2.77 (1.26–4.29) mg/kg
- P. berghei ED90 (95% CI) [16]: 12.58 (7.69–17.46) mg/kg
- IC50 [7, 22]: 29.7 nM
- potency against P. vivax field isolates relative to CQ ([7]; 10 field isolates, times higher than CQ): about 3 times
- IC50 [13]: 35.4 nM

Compound: Clc1ccc2c(NC[C@H]3CCCN4CCCC[C@@H]34)ccnc2c1 [(+)-AM1, 7-chloro-N-(((1R,9aS)-octahydro-1H-quinolizin-1-yl)methyl)quinolin-4-amine]
- inhibition at 3 µM [17]: 14.3 ± 1.9%
- IC50 [11]: 17.5 nM
- inhibition at 3 µM [18]: 11.1 ± 0.5%
- AUC(0-t) [15, 24]: 0.382 µM·h and 126 ng·h/mL
- Cmax [15, 24]: 108 nM and 35.5 ng/mL
- MRT last [15, 24]: 2.7 h
- Tmax [15, 24]: 2 h
- inhibition at 3 µM [19]: 8.3 ± 0.8%
- P. berghei ED90 (95% CI) [16]: 2.03 (1.46–2.60) mg/kg
- ED50 ([16]; Plasmodium berghei, 96 h, read-out: P. berghei ED50 (95% CI)): 1.6 mg/kg
- inhibition at 3 µM [20]: 62.2 ± 1%
- IC50 [13]: 35.8 nM
- inhibition at 3 µM [21]: 9 ± 1.1%
